Assay [1] is described as follows: Selectivity ratio of IC50 for HDAC1 to IC50 for HDAC6.
Assay [2] concerns the target Histone deacetylase. Put plainly: Inhibition of human HDAC in HeLa cells after 30 mins by Fluor de Lys fluorescence assay. It counts as cell-based.
In assay [3] the target is T1, Protein deacetylase HDAC6 (Homo sapiens) (UniProt Q9UBN7).
T1 sequence (whole entry): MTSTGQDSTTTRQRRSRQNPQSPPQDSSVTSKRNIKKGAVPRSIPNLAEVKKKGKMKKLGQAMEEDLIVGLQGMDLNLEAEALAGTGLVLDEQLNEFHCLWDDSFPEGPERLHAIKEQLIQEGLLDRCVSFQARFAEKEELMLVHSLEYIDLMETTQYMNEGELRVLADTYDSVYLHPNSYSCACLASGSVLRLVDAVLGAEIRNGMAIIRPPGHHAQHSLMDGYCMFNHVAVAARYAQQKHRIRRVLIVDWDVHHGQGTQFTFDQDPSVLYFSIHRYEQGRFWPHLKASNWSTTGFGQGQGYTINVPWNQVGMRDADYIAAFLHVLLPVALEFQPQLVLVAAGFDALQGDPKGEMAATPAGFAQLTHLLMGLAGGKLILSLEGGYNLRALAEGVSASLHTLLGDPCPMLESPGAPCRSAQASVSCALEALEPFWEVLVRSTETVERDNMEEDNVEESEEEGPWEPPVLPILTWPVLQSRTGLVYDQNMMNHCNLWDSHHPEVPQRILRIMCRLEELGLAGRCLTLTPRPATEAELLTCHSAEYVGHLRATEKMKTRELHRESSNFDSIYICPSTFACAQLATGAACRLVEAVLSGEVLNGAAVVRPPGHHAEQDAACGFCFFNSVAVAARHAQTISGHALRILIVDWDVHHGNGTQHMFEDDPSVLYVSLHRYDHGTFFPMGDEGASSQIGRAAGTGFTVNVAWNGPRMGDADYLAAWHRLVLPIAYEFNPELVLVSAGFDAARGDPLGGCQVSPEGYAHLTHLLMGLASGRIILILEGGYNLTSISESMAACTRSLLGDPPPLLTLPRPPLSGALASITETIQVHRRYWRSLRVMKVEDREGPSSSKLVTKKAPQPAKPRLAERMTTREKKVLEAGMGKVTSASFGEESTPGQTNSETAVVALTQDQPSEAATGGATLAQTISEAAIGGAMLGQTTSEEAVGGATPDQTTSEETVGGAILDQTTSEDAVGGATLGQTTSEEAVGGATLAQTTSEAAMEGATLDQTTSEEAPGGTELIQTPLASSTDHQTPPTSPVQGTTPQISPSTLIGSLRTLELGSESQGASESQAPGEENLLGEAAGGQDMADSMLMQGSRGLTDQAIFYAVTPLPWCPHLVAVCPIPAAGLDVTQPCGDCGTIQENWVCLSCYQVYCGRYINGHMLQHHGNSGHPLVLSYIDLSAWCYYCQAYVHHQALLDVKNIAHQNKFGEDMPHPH
Put plainly: Inhibition of HDAC6 assessed as residual activity at 32 uM after 30 mins by Fluor de Lys fluorescence assay.

In assay [4] the target is T2, Histone deacetylase 1 (Homo sapiens, UniProt Q13547). Put plainly: Inhibition of HDAC1 assessed as residual activity at 32 uM after 30 mins by Fluor de Lys fluorescence assay.
For assay [5], the target named is T3, Histone deacetylase 3 (Homo sapiens, UniProt O15379). Put plainly: Inhibition of HDAC3 assessed as residual activity at 32 uM after 30 mins by Fluor de Lys fluorescence assay.
Assay [6] has as its target T2, Histone deacetylase 1. As to conditions: 375 nM.
Assay [7] has as its target T3, Histone deacetylase 3. As to conditions: 375 nM.
In assay [8] the target is T1, Protein deacetylase HDAC6 (Homo sapiens). The note with it: 375 nM.
A short description of assay [9]: Selectivity ratio of IC50 for HDAC3 to IC50 for HDAC1.
Assay [10] deals with T2, Histone deacetylase 1. Put plainly: Inhibition of HDAC1 after 30 mins by Fluor de Lys fluorescence assay.
Assay [11] concerns the target T3, Histone deacetylase 3. The assay is described as follows: Inhibition of HDAC3 after 30 mins by Fluor de Lys fluorescence assay.
Assay [12] addresses T4, Protein deacetylase HDAC6 (Homo sapiens, UniProt Q9UBN7).
T4 sequence (Q9UBN7 whole entry): T1 sequence (whole entry)
The assay is described as follows: Inhibition of HDAC6 after 30 mins by Fluor de Lys fluorescence assay.

Assay [13] can be described thus: Selectivity ratio of IC50 for HDAC3 to IC50 for HDAC6.

T2 sequence (Q13547 whole entry): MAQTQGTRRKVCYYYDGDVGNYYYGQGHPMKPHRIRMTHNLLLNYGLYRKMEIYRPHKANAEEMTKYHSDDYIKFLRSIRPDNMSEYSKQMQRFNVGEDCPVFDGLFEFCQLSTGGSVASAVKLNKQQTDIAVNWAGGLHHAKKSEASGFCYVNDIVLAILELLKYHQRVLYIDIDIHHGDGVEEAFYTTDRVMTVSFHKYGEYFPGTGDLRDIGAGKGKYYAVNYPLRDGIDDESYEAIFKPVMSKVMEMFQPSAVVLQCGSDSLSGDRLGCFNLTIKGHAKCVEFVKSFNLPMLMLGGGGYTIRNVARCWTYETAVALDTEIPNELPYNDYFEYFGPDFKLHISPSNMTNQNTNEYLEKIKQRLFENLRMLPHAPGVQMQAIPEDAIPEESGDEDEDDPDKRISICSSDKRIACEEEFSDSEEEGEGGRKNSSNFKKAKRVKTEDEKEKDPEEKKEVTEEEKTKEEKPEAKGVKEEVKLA
T3 sequence (O15379 whole entry): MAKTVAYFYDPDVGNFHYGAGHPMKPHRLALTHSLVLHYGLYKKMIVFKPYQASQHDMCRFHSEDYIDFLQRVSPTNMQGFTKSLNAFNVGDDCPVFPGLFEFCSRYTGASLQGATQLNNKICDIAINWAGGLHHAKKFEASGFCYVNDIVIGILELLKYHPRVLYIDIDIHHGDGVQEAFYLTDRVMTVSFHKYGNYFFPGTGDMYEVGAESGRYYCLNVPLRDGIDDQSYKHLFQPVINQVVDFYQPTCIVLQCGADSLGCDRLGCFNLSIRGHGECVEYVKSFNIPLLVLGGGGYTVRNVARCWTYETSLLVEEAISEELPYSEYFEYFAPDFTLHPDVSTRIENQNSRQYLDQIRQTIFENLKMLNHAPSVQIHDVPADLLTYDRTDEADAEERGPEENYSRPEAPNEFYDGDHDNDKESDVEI

As for `O=C(CCCCCCC(=O)Nc1ccc([C@H]2O[C@@H](CSc3nc(-c4ccccc4)c(-c4ccccc4)o3)C[C@@H](c3ccc(CO)cc3)O2)cc1)NO`, the Ratio IC50 in [1] is 7.

Regarding `C=CC(CCCCC(=O)Nc1ccccc1)CC(=O)NO` (configuration not stated), in [2], the IC50 (commonly the concentration at which inhibition is half-maximal) worked out at 15 µM. The Activity is 27% in assay [3], 24% in assay [4] and 47% in [5].

Turning to `CC(CCCCC(=O)Nc1ccccc1)CC(=O)NO` (configuration not stated), the Activity in assay [6] was determined as 46%; in assay [7], 59%; in [8] it was 74%. The half-maximal inhibitory concentration (IC50) in [2] worked out at 0.35 µM.

With `CCCCC(CCCCC(=O)Nc1ccccc1)CC(=O)NO` (configuration not stated), the IC50 in [2] came out at 184 µM. In addition, the figures for the Activity in assay [3], in assay [4] and in [5] were 24%, 33% and 51%, respectively.

With `CCC(CCCCC(=O)Nc1ccccc1)CC(=O)NO` (configuration not stated), the Ratio IC50 in assay [9] was 4; in assay [13] it was 12; in assay [1], 3. The IC50 in [10] worked out at 22 µM; in assay [2] it was 32 µM; in assay [11] it was 97 µM; in assay [12], 8 µM. Besides, the Activity in [3] was determined as 18%; in [4], 39%; in assay [5] it was 83%.

In the case of `O=C(CC(CCCCC(=O)Nc1ccccc1)c1ccccc1)NO` (configuration not stated), in assay [2], the IC50 turned out to be 73 µM. Besides, the Activity in assay [3] was 25%; in assay [4] it was 45%; in [5] it was 50%.

Source of the values: ChEMBL document CHEMBL1833846 (Bioorg Med Chem Lett, 2011).
